We go through 33 compounds from patent US9242984B2, “Pyrazolyl derivatives as Syk inhibitors” (Merck Sharp & Dohme Corp., priority 2012, dated 2016).

For the first assay, the target named is T1, recombinant human Syk (GST-hSyk fusion protein) (Homo sapiens, UniProt P43405).
T1 construct: purchased Carna Biosciences 08-176
Put plainly: Homogeneous Time-Resolved Fluorescence (HTRF) assay for the recombinant human Syk enzyme. It is filed as biochemical. Conditions: 10-dose titration, 25 μM ATP; read-out: rhSYK IC50. In short, it runs like this: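 GST-hSyk (5 pM) preincubated 10 min with compound (0.1% DMSO) in 15 mM Tris-HCl pH 7.5, 2 mM DTT; reaction started with 250 nM biotinylated peptide, 5 mM Mg, 25 μM ATP, 45 min, room temperature. EDTA quench, Eu-anti-phosphotyrosine/SA-APC HTRF read after 30 min; IC50 from 10-dose titration (10 μM–0.508 nM), four-parameter fit.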
A general note: TR-FRET usually uses a lanthanide donor and a delayed reading to cut background.
As to `COc1ccnc(Nc2cc(C)cc(-c3cnn(CCC(=O)O)c3)c2)n1` [Example 2.1, 3-(4-(3-((4-methoxypyrimidin-2-yl)amino)-5-methylphenyl)-1H-pyrazol-1-yl)propanoic acid], the IC50 came out at 0.0221 µM.

Staying with this assay, now noted: IC50 class; 10-dose titration, 25 μM ATP; read-out: rhSYK Activity.
`CCOC(=O)CCn1cc(-c2cc(C)cc(Nc3cc(C)ccn3)n2)cn1` [Example 1.26, ethyl 3-(4-{4-methyl-6-[(4-methylpyridin-2-yl)amino]pyridin-2-yl}-1H-pyrazol-1-yl)propanoate]: the IC50 lay in the range of 0.1 to 1 µM.

Consider `Cc1cc(Nc2cc(C)c(Cl)cn2)nc(-c2cnn(CCC(=O)O)c2)c1` [Example 1.27, 3-(4-{6-[(5-chloro-4-methylpyridin-2-yl)amino]-4-methylpyridin-2-yl}-1H-pyrazol-1-yl)propanoic acid], for which the IC50 was 0.1 to 1 µM.

For the compound `Cc1cc(Nc2cc(C(F)(F)F)ccn2)nc(-c2cnn(CC3CNC(=O)O3)c2)c1` (stereo not shown) [Example 1.28, 5-{[4-(4-methyl-6-{[4-(trifluoromethyl)pyridin-2-yl]amino}pyridin-2-yl)-1H-pyrazol-1-yl]methyl}-1,3-oxazolidin-2-one], the IC50 is at most 0.1 µM.

Regarding `Cc1cc(Nc2cc(C(F)(F)F)ccn2)nc(-c2cnn(CC3CNC(=O)O3)c2)c1` (stereo not shown) [Example 1.29, 5-{[4-(4-methyl-6-{[4-(trifluoromethyl)pyridin-2-yl]amino}pyridin-2-yl)-1H-pyrazol-1-yl]methyl}-1,3-oxazolidin-2-one], the IC50 is at most 0.1 µM.

With `Cc1cc(Nc2cc(C(F)(F)F)ccn2)nc(-c2cnn(CC(=O)OC(C)(C)C)c2)c1` [Example 1.30, tert-butyl [4-(4-methyl-6-{[4-(trifluoromethyl)pyridin-2-yl]amino}pyridin-2-yl)-1H-pyrazol-1-yl]acetate], the IC50 is at most 0.1 µM.

In the case of `Cc1cc(Nc2cc(C(F)(F)F)ccn2)nc(-c2cnn(CC(=O)O)c2)c1` [Example 1.31, [4-(4-methyl-6-{[4-(trifluoromethyl)pyridin-2-yl]amino}pyridin-2-yl)-1H-pyrazol-1-yl]acetic acid], the IC50 was at most 0.1 µM.

Regarding `Cc1cc(Nc2nccc(C(F)(F)F)n2)cc(-c2cn[nH]c2)n1` [Example 1.44, N-[2-methyl-6-(1H-pyrazol-4-yl)pyridin-4-yl]-4-(trifluoro-methyl)pyrimidin-2-amine], the IC50 is 0.1 to 1 µM.

As to `Cc1cc(Nc2cc(C(F)(F)F)ccn2)nc(-c2ccnn2C)n1` [Example 1.45, 6-methyl-2-(1-methyl-1H-pyrazol-5-yl)-N-[4-(trifluoro-methyl)pyridin-2-yl]pyrimidin-4-amine], the IC50 lay within 0.1 to 1 µM.

On to `Cc1cc(Nc2cc(C(F)(F)F)ccn2)nc(-c2cc(C(F)(F)F)nn2C)n1` [Example 1.46, 6-methyl-2-[1-methyl-3-(trifluoromethyl)-1H-pyrazol-5-yl]-N-[4-(trifluoromethyl)pyridin-2-yl]pyrimidin-4-amine], for which the IC50 was 1 to 10 µM.

Take `Cc1cc(Nc2nccc(C(C)(F)F)n2)cc(-c2cn[nH]c2)c1` [Example 1.47, 4-(1,1-difluoroethyl)-N-[3-methyl-5-(1H-pyrazol-4-yl)phenyl]pyrimidin-2-amine]: the IC50 was at most 0.1 µM.

`Cc1cc(Nc2nccc(C(F)(F)F)n2)cc(-c2cnn(C(C)c3ccc(C(=O)O)cc3)c2)c1` (stereo not shown) [Example 1.48, 4-{1-[4-(3-methyl-5-{[4-(trifluoromethyl)pyrimidin-2-yl]amino}phenyl)-1H-pyrazol-1-yl]ethyl}benzoic acid]: the IC50 was at most 0.1 µM.

Consider `Cc1cc(Nc2nccc(C(F)(F)F)n2)cc(-c2cnn(C(C)c3ccc(C(=O)O)cc3)c2)c1` (stereo not shown) [Example 1.49, 4-{1-[4-(3-methyl-5-{[4-(trifluoromethyl)pyrimidin-2-yl]amino}phenyl)-1H-pyrazol-1-yl]ethyl}benzoic acid], for which the IC50 is at most 0.1 µM.

Turning to `Nc1cc(Nc2nccc(C(F)(F)F)n2)cc(-c2cnn(C3CCC(C(=O)O)CC3)c2)c1` (stereo not shown) [Example 1.50, 4-[4-(3-amino-5-{[4-(trifluoromethyl)pyrimidin-2-yl]amino}phenyl)-1H-pyrazol-1-yl]cyclohexanecarboxylic acid], the IC50 was at most 0.1 µM.

In the case of `Nc1cc(Nc2nccc(C(F)(F)F)n2)cc(-c2cnn(C3CCC(C(=O)O)CC3)c2)c1` (stereo not shown) [Example 1.51, 4-[4-(3-amino-5-{[4-(trifluoromethyl)pyrimidin-2-yl]amino}phenyl)-1H-pyrazol-1-yl]cyclohexanecarboxylic acid], the IC50 was at most 0.1 µM.

As for `CC(=O)Nc1cc(Nc2nccc(C(F)(F)F)n2)cc(-c2cnn(C3CCC(C(=O)O)CC3)c2)c1` (stereo not shown) [Example 1.52, 4-{4-[3-(acetylamino)-5-{[4-(trifluoromethyl)pyrimidin-2-yl]amino}phenyl]-1H-pyrazol-1-yl}cyclohexanecarboxylic acid], the IC50 is at most 0.1 µM.

For `CC(=O)Nc1cc(Nc2nccc(C(F)(F)F)n2)cc(-c2cnn(C3CCC(C(=O)O)CC3)c2)c1` (stereo not shown) [Example 1.53, 4-{4-[3-(acetylamino)-5-{[4-(trifluoromethyl)pyrimidin-2-yl]amino}phenyl]-1H-pyrazol-1-yl}cyclohexanecarboxylic acid], the IC50 is at most 0.1 µM.

With `O=C(O)C1CCC(n2cc(-c3cc(Cl)cc(Nc4cc(C(F)(F)F)ccn4)n3)cn2)CC1` (stereo not shown) [Example 1.54, 4-[4-(4-chloro-6-{[4-(trifluoromethyl)pyridin-2-yl]amino}pyridin-2-yl)-1H-pyrazol-1-yl]cyclohexanecarboxylic acid], the IC50 was at most 0.1 µM.

As for `O=C(O)C1CCC(n2cc(-c3cc(Cl)cc(Nc4cc(C(F)(F)F)ccn4)n3)cn2)CC1` (stereo not shown) [Example 1.55, 4-[4-(4-chloro-6-{[4-(trifluoromethyl)pyridin-2-yl]amino}pyridin-2-yl)-1H-pyrazol-1-yl]cyclohexanecarboxylic acid], the IC50 is at most 0.1 µM.

On to `Cc1cc(Nc2nccc(C(F)(F)F)n2)cc(-c2cnn(C3CCC(C(=O)O)CC3)c2)c1` (stereo not shown) [Example 1.56, 4-[4-(3-methyl-5-{[4-(trifluoromethyl)pyrimidin-2-yl]amino}phenyl)-1H-pyrazol-1-yl]cyclohexanecarboxylic acid], for which the IC50 is at most 0.1 µM.

For `Cc1cc(Nc2nccc(C(F)(F)F)n2)cc(-c2cnn(C3CCC(C(=O)O)CC3)c2)c1` (stereo not shown) [Example 1.57, 4-[4-(3-methyl-5-{[4-(trifluoromethyl)pyrimidin-2-yl]amino}phenyl)-1H-pyrazol-1-yl]cyclohexanecarboxylic acid], the IC50 is at most 0.1 µM.

On to `Cc1cc(Nc2nccc(C)n2)cc(-c2cnn(C3CCC(C(=O)O)CC3)c2)c1` (stereo not shown) [Example 1.58, 4-(4-{3-methyl-5-[(4-methylpyrimidin-2-yl)amino]phenyl}-1H-pyrazol-1-yl)cyclohexanecarboxylic acid], for which the IC50 is at most 0.1 µM.

Turning to `Cc1cc(Nc2nccc(C)n2)cc(-c2cnn(C3CCC(C(=O)O)CC3)c2)c1` (stereo not shown) [Example 1.59, 4-(4-{3-methyl-5-[(4-methylpyrimidin-2-yl)amino]phenyl}-1H-pyrazol-1-yl)cyclohexanecarboxylic acid], the IC50 was at most 0.1 µM.

Take `O=C(O)C1CCC(n2cc(-c3cc(Cl)cc(Nc4nccc(C(F)(F)F)n4)c3)cn2)CC1` (stereo not shown) [Example 1.60, 4-[4-(3-chloro-5-{[4-(trifluoromethyl)pyrimidin-2-yl]amino}phenyl)-1H-pyrazol-1-yl]cyclohexanecarboxylic acid]: the IC50 was at most 0.1 µM.

Turning to `O=C(O)C1CCC(n2cc(-c3cc(Cl)cc(Nc4nccc(C(F)(F)F)n4)c3)cn2)CC1` (stereo not shown) [Example 1.61, 4-[4-(3-chloro-5-{[4-(trifluoromethyl)pyrimidin-2-yl]amino}phenyl)-1H-pyrazol-1-yl]cyclohexanecarboxylic acid], the IC50 was at most 0.1 µM.

Turning to `Cc1cc(Nc2cc(C(F)F)ccn2)nc(-c2cnn(C(C)C3CNC(=O)C3)c2)c1` (stereo not shown) [Example 1.62, 4-{1-[4-(6-{[4-(difluoromethyl)pyridin-2-yl]amino}-4-methylpyridin-2-yl)-1H-pyrazol-1-yl]ethyl}pyrrolidin-2-one], the IC50 is at most 0.1 µM.

Turning to `Cc1cc(Nc2cc(C(F)F)ccn2)nc(-c2cnn(C(C)C3CNC(=O)C3)c2)c1` (stereo not shown) [Example 1.63, 4-{1-[4-(6-{[4-(difluoromethyl)pyridin-2-yl]amino}-4-methylpyridin-2-yl)-1H-pyrazol-1-yl]ethyl}pyrrolidin-2-one], the IC50 was at most 0.1 µM.

`Cc1cc(Nc2cc(C(F)F)ccn2)nc(-c2cnn(C(C)C3CNC(=O)C3)c2)c1` (stereo not shown) [Example 1.64, 4-{1-[4-(6-{[4-(difluoromethyl)pyridin-2-yl]amino}-4-methylpyridin-2-yl)-1H-pyrazol-1-yl]ethyl}pyrrolidin-2-one]: the IC50 was at most 0.1 µM.

As for `Cc1cc(Nc2nccc(C(F)F)n2)cc(-c2cn[nH]c2)c1` [Example 1.65, 4-(difluoromethyl)-N-[3-methyl-5-(1H-pyrazol-4-yl)phenyl]pyrimidin-2-amine], the IC50 is at most 0.1 µM.

Take `Cc1cc(Nc2cc(C(F)F)ccn2)nc(-c2cnn(C(C)C3CNC(=O)C3)c2)c1` (stereo not shown) [Example 1.66, 4-{1-[4-(6-{[4-(difluoromethyl)pyridin-2-yl]amino}-4-methylpyridin-2-yl)-1H-pyrazol-1-yl]ethyl}pyrrolidin-2-one]: the IC50 was at most 0.1 µM.

Consider `COc1ccnc(Nc2cc(C)cc(-c3cnn(CCC(=O)O)c3)c2)n1` [Example 2.1, 3-(4-(3-((4-methoxypyrimidin-2-yl)amino)-5-methylphenyl)-1H-pyrazol-1-yl)propanoic acid], for which the IC50 is at most 0.1 µM.

`CCOC(=O)CCn1cc(-c2cccc(Nc3nccc(C(F)(F)F)n3)c2)cn1` [Example 2.2, ethyl 3-[4-(3-{[4-(trifluoromethyl)-pyrimidin-2-yl]-amino}phenyl)-1H-pyrazol-1-yl]-propanoate]: the IC50 is 0.1 to 1 µM.

Turning to `CCOC(=O)CCn1cc(-c2cc(C)cc(Nc3nccc(OC)n3)c2)cn1` [Example 2.3, ethyl 3-(4-{3-[(4-methoxypyrimidin-2-yl)amino]-5-methylphenyl}-1H-pyrazol-1-yl)-propanoate], the IC50 is at most 0.1 µM.

As to `O=C(O)CCn1cc(-c2cccc(Nc3nccc(C(F)(F)F)n3)c2)cn1` [Example 2.5, 3-[4-(3-{[4-(trifluoro-methyl)pyrimidin-2-yl]amino}phenyl)-1H-pyrazol-1-yl]-propanoic acid], the IC50 is at most 0.1 µM.
